In US20100204464A1, “ASCORBIC ACID DERIVATIVES, THEIR PREPARATION METHODS, INTERMEDIATES AND USES IN COSMETICS” (NANJING ZHONGSHI CHEMICAL CO., LTD., priority 2007, published 2010):
One block for each compound: values may come before it.

Assays:
[1] = Stability of aqueous solutions stored 3 months, content by HPLC and color; format: physicochemical; settings: for Content (HPLC): initial content 98%; for Color, in words / Content (HPLC), in words: 10%, 5% and 1.0% aqueous solutions
Protocol: In the comparative experiment of stability between 3-O-lactosyl-L-ascorbic acid and 2-O-α-D-glucopyranosyl-L-ascorbic acid (AA-2G), both compounds were prepared as 10%, 5% and 1.0% aqueous solutions respectively and were placed at 0° C., 25° C. and […] respectively for 3 months.

[2] = tested on: B16F10 murine melanoma cells; assay: MTT experiment: multiplication of melanoma cells; format: cell-based; settings: for Multiplication rate of melanoma cell (MTT method, Mean ± SE): 72 h, blank control = 100%; for Concentration at which multiplication of B16F10 cells was significantly inhibited / Concentration with no influence on the multiplication of B16F10 cells: MTT experiment
Protocol: (§1) The effects of preventing melanin from deposition (whitening effects) of 3-O-glycosyl-L-ascorbic acid and 2-O-α-D-glucopyranosyl-L-ascorbic acid (AA-2G) were evaluated by using B16F10 murine melanoma cells. […] The experimental method comprising:
A. MTT experiment: to investigate the influence of each sample on the multiplication of B16F10 murine melanoma cell through cell culture.
All cells were seeded in the 96-well plate respectively at a density of 1*10^4/well, and incubated under 5% CO2 and at 37° C. for 24 h, then the supernatant was removed and to each well was added […] culture medium containing a certain concentration of medicine. Three concentrations, high, middle and low, were set for each medicine, each concentration in quadruplicate wells. For control group, 200 μL culture medium was directly added and incubated for 72 h. 20 μL MTT solution (5 g/L) was added to each well and the sample was incubated under 5% CO2 and at 37° C. for 4 h, then the supernatant was removed and to each well was added 150 μL DMSO. The sample was vibrated for 10 min and the absorbance of each well was measured at a wavelength of 490 nm (reference wavelength: 620 nm) by enzyme-label instrument. Cell multiplication rate=(average absorbance of each concentration of medicine to be screened)/(average absorbance of control group)*100%.

[3] = target: T1, tyrosinase (Mus musculus, UniProt P11344); assay: Activity of tyrosinase of B16F10 melanoma cells (L-DOPA, absorbance 490 nm); format: cell-based, murine; settings: for Activity of tyrosinase of B16F10 melanoma cell (Mean ± SE): 6 days, control = 100%
T1 construct: endogenous in cells; host or cells: B16F10 murine melanoma cells
T1 sequence (P11344 19-533): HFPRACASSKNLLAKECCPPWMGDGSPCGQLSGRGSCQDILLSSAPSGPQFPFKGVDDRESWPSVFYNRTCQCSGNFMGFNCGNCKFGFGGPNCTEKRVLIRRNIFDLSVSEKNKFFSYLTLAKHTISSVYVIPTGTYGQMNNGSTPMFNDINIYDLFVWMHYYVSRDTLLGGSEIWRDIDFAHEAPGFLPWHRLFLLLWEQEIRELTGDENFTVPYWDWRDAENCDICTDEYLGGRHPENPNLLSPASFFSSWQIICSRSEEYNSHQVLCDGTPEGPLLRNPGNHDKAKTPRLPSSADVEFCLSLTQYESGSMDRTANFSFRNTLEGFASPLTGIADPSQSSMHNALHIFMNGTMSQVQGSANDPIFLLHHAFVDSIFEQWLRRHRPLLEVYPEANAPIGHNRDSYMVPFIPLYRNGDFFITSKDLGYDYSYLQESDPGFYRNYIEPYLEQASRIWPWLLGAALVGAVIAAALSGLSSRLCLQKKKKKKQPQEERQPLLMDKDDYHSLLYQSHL
Protocol: as §1
B. Experiment for determining the activity of tyrosinase: to investigate through cell culture the influence of each sample on the activity of tyrosinase playing an important role in the formation of melanin.
B16F10 cells were seeded in the 96-well plate respectively at a density of 5*10^3/well, and incubated under 5% CO2 and at 37° C. for 24 hour, then the supernatant was removed and to each well was added 100 μL culture medium containing different concentration of medicine to be screened and for blank control group, only culture medium was added. Each group was in quadruplicate and the culture medium was renewed every other day. After being incubated for 6 days, each well was washed by PBS without Ca^2+ and Mg^2+, and then 100 μL Triton-X solution (0.5%) was added to each well. After being vibrated in ultrasound for 30 minutes, 50 μL L-DOPA solution (10 mM/L) was added to each well and the samples was kept at 37° C. for 3 hours. The absorbance of each well was measured at a wavelength of 490 nm (reference wavelength: 620 nm) by enzyme-label instrument. Influence rate of the activity of tyrosinase=(average absorbance of the group of medicine to be screened)/(average absorbance of control group)*100%

[4] = tested on: B16F10 cells; assay: DOPA staining of B16F10 cells (qualitative melanin/tyrosinase); format: cell-based, murine; settings: 6 days, 0.5% L-DOPA, photos under microscope
Protocol: as §1
Each group was in quadruplicate and the culture medium was renewed every other day.

[5] = tested on: B16F10 cells; assay: Quantitative analysis of the content of melanin of B16F10 cells; format: cell-based, murine; settings: for Content of melanin of B16F10 cells (Mean ± SE): 6 days, blank control = 100%
Protocol: as §1
D. Quantitative analysis of the content of melanin.
B16F10 cells were seeded in φ 60 mm culture mediums, and incubated under 5% CO2 and at 37° C. for 24 h, then the supernatant was removed and to each medium was added culture medium containing different concentration of medicine and for control group, only culture medium was added. Each group was in triplicate and the culture medium was renewed every other day. After being incubated for 6 days, the cells were digested by 0.25% trypsin/EDTA and collected, then washed by PBS twice. The cells of each group were counted and 0.2 mL redistilled water was added to make the cells suspended for 1 min respectively, then the mixture of 500 μL ethanol and 500 μL ether was added. The cells were placed at room temperature for 15 min and centrifuged at a rate of 3000 rpm for 5 min, then the supernatant was removed and 1 ml NaOH (1 mol/L, containing 10% DMSO) was added to the precipitate. After being placed at 80° C. for 30 min, 4 mL redistilled water was added to dilute the concentration of NaOH to 0.2 mol/L. The absorbance of each group was measured at a wavelength of 475 nm (reference wavelength: 620 nm) by spectrophotometer. The content of melanin=[(absorbance of the group of medicine to be screened/average amount of cells)/(average absorbance of control group/average amount of cells)]*100%

Color ([1]; 1% aqueous solution, 0 °C): Colorless | Content (HPLC) ([1]; 1% aqueous solution, 0 °C): 98% | Color ([1]; 1% aqueous solution, 25 °C): Colorless | Content (HPLC) ([1]; 1% aqueous solution, 25 °C): 98% | Color ([1]; 1% aqueous solution, 45 °C): Slight | Content (HPLC) ([1]; 1% aqueous solution, 45 °C): 96% | Color ([1]; 5% aqueous solution, 0 °C): Colorless | Content (HPLC) ([1]; 5% aqueous solution, 0 °C): 98% | Color ([1]; 5% aqueous solution, 25 °C): Colorless | Content (HPLC) ([1]; 5% aqueous solution, 25 °C): 98% | Color ([1]; 5% aqueous solution, 45 °C): Slight | Content (HPLC) ([1]; 5% aqueous solution, 45 °C): 96% | Color ([1]; 10% aqueous solution, 0 °C): Colorless | Content (HPLC) ([1]; 10% aqueous solution, 0 °C): 98% | Color ([1]; 10% aqueous solution, 25 °C): Colorless | Content (HPLC) ([1]; 10% aqueous solution, 25 °C): 98% | Color ([1]; 10% aqueous solution, 45 °C): Slight | Content (HPLC) ([1]; 10% aqueous solution, 45 °C): 94% | Color, in words ([1]; 0° C.): colorless | Content (HPLC), in words ([1]; 0° C.): almost unchanged | Color, in words ([1]; 25° C. and 45° C.): colorless | Content (HPLC), in words ([1]; 25° C. and 45° C.): changed little | Activity of tyrosinase of B16F10 melanoma cell (Mean ± SE) ([3]; 1.0 mM): 51.01 ± 2.71 % | Activity of tyrosinase of B16F10 melanoma cell (Mean ± SE) ([3]; 2.5 mM): 36.19 ± 2.98 % | Activity of tyrosinase of B16F10 melanoma cell (Mean ± SE) ([3]; 5.0 mM): 20.68 ± 1.34 % | Inhibition of tyrosinase activity compared with kojic acid ([3]; high concentration group (5.0 mM)): no statistical difference | Inhibition of the activity of tyrosinase ([3]; high, middle and low concentrations (5.0 mM, 2.5 mM and 1.0 mM)): significantly inhibited | Inhibition of tyrosinase activity compared with kojic acid ([3]; middle and low concentration groups (2.5 mM, 1.0 mM)): weaker | Inhibition of tyrosinase activity compared with arbutin ([3]; three concentration groups (5.0, 2.5, 1.0 mM)): no statistical difference
SMILES: O=C1O[C@H]([C@@H](O)CO)C(OC2O[C@H](CO)[C@@H](O[C@@H]3O[C@H](CO)[C@H](O)[C@H](O)[C@H]3O)[C@H](O)[C@H]2O)=C1O (stereo partly drawn) [VC derivative 2, 3-O-(D-lactosyl)-L-ascorbic acid]
Multiplication rate of melanoma cell (MTT method, Mean ± SE) ([2]; 1.0 mM): 72.67 ± 10.59% | Multiplication rate of melanoma cell (MTT method, Mean ± SE) ([2]; 5.0 mM): 79.34 ± 3.99% | Multiplication rate of melanoma cell (MTT method, Mean ± SE) ([2]; 10.0 mM): 76.56 ± 7.67% | Multiplication rate of melanoma cell (MTT method, Mean ± SE) ([2]; 20.0 mM): 66.67 ± 5.48 % | Concentration at which multiplication of B16F10 cells was significantly inhibited [2]: ≥ 10.0 mM | Concentration with no influence on the multiplication of B16F10 cells [2]: lower than 10.0 mM | Degree of DOPA staining compared with blank control group [4]: lower degree of staining | Content of melanin of B16F10 cells (Mean ± SE) ([5]; 1.0 mM): 51.01 ± 2.71 % | Content of melanin of B16F10 cells (Mean ± SE) ([5]; 2.5 mM): 30.08 ± 3.77 % | Content of melanin of B16F10 cells (Mean ± SE) ([5]; 5.0 mM): 22.24 ± 1.80 % | Inhibiting melanin synthesis compared with kojic acid and arbutin ([5]; at the same concentration): no statistical difference

Activity of tyrosinase of B16F10 melanoma cell (Mean ± SE) ([3]; 1.0 mM): 50.02 ± 4.04 % | Activity of tyrosinase of B16F10 melanoma cell (Mean ± SE) ([3]; 2.5 mM): 38.07 ± 1.78 % | Activity of tyrosinase of B16F10 melanoma cell (Mean ± SE) ([3]; 5.0 mM): 20.53 ± 1.02 %
SMILES: OC[C@H]1O[C@@H](Oc2ccc(O)cc2)[C@H](O)[C@@H](O)[C@@H]1O [Arbutin]
Multiplication rate of melanoma cell (MTT method, Mean ± SE) ([2]; 1.0 mM): 113.57 ± 5.57% | Multiplication rate of melanoma cell (MTT method, Mean ± SE) ([2]; 5.0 mM): 102.94 ± 3.64% | Multiplication rate of melanoma cell (MTT method, Mean ± SE) ([2]; 10.0 mM): 76.94 ± 6.08% | Multiplication rate of melanoma cell (MTT method, Mean ± SE) ([2]; 20.0 mM): 46.15 ± 3.41 % | Content of melanin of B16F10 cells (Mean ± SE) ([5]; 1.0 mM): 50.12 ± 1.97 % | Content of melanin of B16F10 cells (Mean ± SE) ([5]; 2.5 mM): 36.61 ± 2.15 % | Content of melanin of B16F10 cells (Mean ± SE) ([5]; 5.0 mM): 20.53 ± 1.02 %

Color, in words ([1]; 0° C.): colorless | Content (HPLC), in words ([1]; 0° C.): almost unchanged | Color, in words ([1]; 25° C. and 45° C.): obviously yellow | Content (HPLC), in words ([1]; 25° C. and 45° C.): decreased | Activity of tyrosinase of B16F10 melanoma cell (Mean ± SE) ([3]; 1.0 mM): 95.99 ± 2.01% | Activity of tyrosinase of B16F10 melanoma cell (Mean ± SE) ([3]; 2.5 mM): 92.40 ± 0.94% | Activity of tyrosinase of B16F10 melanoma cell (Mean ± SE) ([3]; 5.0 mM): 69.90 ± 1.733 % | Inhibiting effect on the activity of tyrosinase ([3]; rather weaker than 3-O-lactosyl-L-ascorbic acid): a certain inhibiting effect
SMILES: O=C1O[C@H]([C@@H](O)CO)C(O)=C1O[C@H]1O[C@H](CO)[C@@H](O)[C@H](O)[C@H]1O [VC derivative 1, 2-O-α-D-glucopyranosyl-L-ascorbic acid]
Multiplication rate of melanoma cell (MTT method, Mean ± SE) ([2]; 1.0 mM): 108.66 ± 9.32% | Multiplication rate of melanoma cell (MTT method, Mean ± SE) ([2]; 5.0 mM): 100.98 ± 14.79% | Multiplication rate of melanoma cell (MTT method, Mean ± SE) ([2]; 10.0 mM): 43.21 ± 7.40 % | Multiplication rate of melanoma cell (MTT method, Mean ± SE) ([2]; 20.0 mM): 8.17 ± 0.46 % | Concentration at which multiplication of B16F10 cells was significantly inhibited [2]: ≥ 5.0 mM | Concentration with no influence on the multiplication of B16F10 cells [2]: lower than 5.0 mM | Effect of inhibiting the synthesis of melanin [5]: relatively weak | Content of melanin of B16F10 cells (Mean ± SE) ([5]; 1.0 mM): 96.37 ± 3.63% | Content of melanin of B16F10 cells (Mean ± SE) ([5]; 2.5 mM): 91.11 ± 1.82% | Content of melanin of B16F10 cells (Mean ± SE) ([5]; 5.0 mM): 84.19 ± 1.85%

SMILES: O=c1cc(CO)occ1O [Kojic acid]
Multiplication rate of melanoma cell (MTT method, Mean ± SE) ([2]; 1.0 mM): 92.20 ± 8.28% | Multiplication rate of melanoma cell (MTT method, Mean ± SE) ([2]; 5.0 mM): 63.23 ± 3.66% | Multiplication rate of melanoma cell (MTT method, Mean ± SE) ([2]; 10.0 mM): 43.10 ± 2.31 % | Multiplication rate of melanoma cell (MTT method, Mean ± SE) ([2]; 20.0 mM): 43.55 ± 7.36 % | Content of melanin of B16F10 cells (Mean ± SE) ([5]; 1.0 mM): 37.20 ± 4.33 % | Content of melanin of B16F10 cells (Mean ± SE) ([5]; 2.5 mM): 24.15 ± 1.88 % | Content of melanin of B16F10 cells (Mean ± SE) ([5]; 5.0 mM): 17.65 ± 1.42 %
